The structures appear in SMILES notation. Read-outs that look alike come from different tables or passages of the source.

The values below come from article PMC7504721, “Targeting the Initiator Protease of the Classical Pathway of Complement Using Fragment-Based Drug Discovery” (Molecules, 2020).

The assay deals with classical pathway. Nature of the assay: Classical pathway-specific ELISA-based complement inhibition assay (C4b deposition, IgM-coated plate, human serum). The assay is classed as biochemical. The settings on record: for IC50: non-linear regression; for inhibition of classical pathway (C4b deposition) relative to non-binding control compound: single 500 µM concentration, triplicate, 1% normal human serum, unpaired t-test p < 0.05. As to the method: To carry out classical pathway ELISA-based inhibition assays, IgM was dissolved in coating buffer (100 mM Na2CO3/NaHCO3, pH 9.6) to a final concentration of 3 µg/mL and was dispensed into 96-well plates at 100 µL per well. Mannan was dissolved to 2 µg/mL and lipopolysaccharides (LPS) were dissolved to 10 µg/mL in coating buffer for use in lectin and alternative pathway inhibition assays, respectively. Immobilization was allowed to proceed overnight at 25 °C. The immobilization reagent was then removed, followed by three washes in washing buffer (50 mM Tris pH 8.0, 200 mM NaCl, 0.05% (v/v) Tween-20), and blocked using 100 µL of 1% (w/v) bovine serum albumin in PBS-T for 1 h at 37°C. Blocking buffer was removed and plates were washed three times in washing buffer. Next, 500 µM of each compound, 5% (v/v) DMSO, and 1% (v/v) normal human serum (Innovative Research) (final concentrations) were dissolved in classical/lectin pathway ELISA buffer (20 mM HEPES (pH 7.3), 0.1% (w/v) gelatin, 140 mM NaCl, 2 mM CaCl2, 0.5 mM MgCl2) and added to the IgM-coated plate for 1 h at 37 °C. For the lectin pathway-specific ELISAs shown in Figure 5D, we used C1q-depleted serum from CompTech at 2% (v/v) and thus the classical pathway assays for this analysis were also performed using serum from CompTech at 2% (v/v). For the alternative pathway, 20% (v/v) normal human serum (CompTech) (final concentration) and alternative pathway ELISA buffer (20 mM HEPES, (pH 7.5), 0.1% (w/v) gelatin, 140 mM NaCl, 2 mM CaCl2, 0.5 mM MgCl2) were used in place of classical/lectin pathway ELISA buffer. Plates were then washed three times in wash buffer and each well was filled with 100 µL of α-C4 (HYB 162-02, Santa Cruz Biotechnology) diluted 1:300 for classical and lectin pathway assays and 100 µL of C3b (WM-1, Sigma) diluted 1:300 for alternative pathway assays. Plates were again incubated at 37 °C for 1 h, washed three times, filled with 100 µL of HRP-conjugated goat-α-mouse secondary antibody (diluted 1:3000) (Thermo Scientific, Waltham, MA, USA), and rocked gently for 1 h at 25 °C. After three more washes, 50 µl of substrate (1-step Ultra TMB, Thermo Scientific, Waltham, MA, USA) was added to each well and rocked for 15 min in the dark at 25 °C. The reaction was stopped with 50 µL of 0.16 M sulfuric acid, and the plate was read at 450 nm using an EnSight multimode plate reader (Perkin-Elmer). Each column contained a positive control for full complement activity (5% (v/v) blank DMSO with 1% (v/v) serum) and a negative control for no complement activity (5% (v/v) blank DMSO and no serum). Positive controls (1% (v/v) serum, no inhibitor) were defined as 100% C4b or C3b signal whereas negative controls (no serum) were defined as 0% C4b or C3b signal for each column. Compounds that inhibited complement deposition relative to the control were then evaluated using the same assay setup across a two-fold variable concentration series for each compound (7.8–500 µM). […] All experiments were performed no less than three times.
Statistical analyses were performed using GraphPad Prism version 8. For complement inhibition assays, measures of statistical significance for single-dose experiments were assessed using unpaired Student’s t-tests compared to no inhibitor controls (pathway ELISAs) or non-binding control compounds (classical pathway ELISA). Statistical significance was defined as p < 0.05. Calculation of IC50 values from dose-dependent complement assays were obtained by non-linear regression analysis using a using an inhibitor vs. response model and with 95% confidence intervals reported. For non-linear regression analyses, the top and bottom of each curve were constrained to 100 and 0, respectively.

The mark [1] stands for this setting: dose-response 7.8–500 µM, top and bottom constrained to 100 and 0, read-out: IC50, classical pathway-specific ELISA.
[2] abbreviates: n = 9 (CMP-1611), n = 7 (CMP-1696), read-out: 95% confidence interval of IC50, classical pathway-specific ELISA.

For the compound `CN(C)c1cc(N2CCCC(N)C2)ncn1` (stereo not drawn) [CMP-1611], the “inhibition of classical pathway (C4b deposition) relative to non-binding control compound” value is given as “statistically significant inhibitory activity”. Also, the IC50 (commonly the concentration that inhibits the measured activity by half) under setting [1] was 660 µM. In addition, under setting [2], the IC50 was 560 to 790 µM.

Consider `COCc1nc(-c2ccc(OC3CNC3)cc2)no1` [CMP-1696], for which the “inhibition of classical pathway (C4b deposition) relative to non-binding control compound” value was “statistically significant inhibitory activity”. The IC50 under setting [1] was 520 µM. Further, under setting [2], the IC50 was in the range of 410 to 680 µM.
